Laboratory results taken from patent publication US20100298141A1, “SUBSTITUTED PYRIDINE N-OXIDE HERBICIDES” (E. I. DU PONT DE NEMOURS AND COMPANY, priority 2007, published 2010).

What was measured:
[1] = system: lambsquarters; experiment: Test G preemergence test; type: in vivo, Chenopodium album; conditions: scale 0 to 100
[2] = system: millet foxtail; experiment: Test G preemergence test; type: in vivo, Setaria italica; conditions: scale 0 to 100
[3] = system: windgrass; experiment: Test D preemergence test; type: in vivo, Apera spica-venti; conditions: scale 0 to 100
Outline: (§1)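 Seeds were sown and sprayed preemergence with test chemicals formulated in a non-phytotoxic solvent mixture containing a surfactant. A dash marks no test result.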

[4] = system: littleseed canarygrass; experiment: Test D preemergence test; type: in vivo, Phalaris minor; conditions: scale 0 to 100
Outline: as §1

[5] = system: yellow foxtail; experiment: Test G preemergence test; type: in vivo, Pennisetum glaucum; conditions: scale 0 to 100
[6] = system: cotton; experiment: Test G preemergence test; type: in vivo, Gossypium hirsutum; conditions: scale 0 to 100
[7] = system: rice; experiment: Test B flooded paddy test; type: in vivo, Oryza sativa; conditions: Flood, 250 g ai/ha, 13 to 15 days; scale 0 to 100, 0 no effect, 100 complete control
Description: (§2) At time of treatment, test pots were flooded to 3 cm above the soil surface, treated by application of test compounds directly to the paddy water, and then maintained at that water depth for the duration of the test. Treated plants and controls were maintained in a greenhouse for 13 to 15 days, after which time all species were compared to controls and visually evaluated. […] A dash (-) response means no test result.

[8] = system: soybean; experiment: Test G preemergence test; type: in vivo, Glycine max; conditions: scale 0 to 100
[9] = system: duck salad; experiment: Test B flooded paddy test; type: in vivo, Heteranthera limosa; conditions: Flood, 250 g ai/ha, 13 to 15 days; scale 0 to 100, 0 no effect, 100 complete control
Description: as §2

[10] = system: blackgrass; experiment: Test D preemergence test; type: in vivo, Alopecurus myosuroides; conditions: scale 0 to 100
Outline: as §1

[11] = system: annual bluegrass; experiment: Test D preemergence test; type: in vivo, Poa annua; conditions: scale 0 to 100
Outline: as §1

[12] = system: Italian ryegrass; experiment: Test D preemergence test; type: in vivo, Lolium multiflorum; conditions: scale 0 to 100
Outline: as §1

[13] = system: fall panicum; experiment: Test G preemergence test; type: in vivo, Panicum dichotomiflorum; conditions: scale 0 to 100
[14] = system: giant foxtail; experiment: Test G preemergence test; type: in vivo, Setaria faberii; conditions: scale 0 to 100
[15] = system: broadleaf signalgrass; experiment: Test G preemergence test; type: in vivo, Brachiaria platyphylla; conditions: scale 0 to 100
[16] = system: woolly cupgrass; experiment: Test G preemergence test; type: in vivo, Eriochloa villosa; conditions: scale 0 to 100
[17] = system: goosegrass; experiment: Test G preemergence test; type: in vivo, Eleusine indica; conditions: scale 0 to 100
[18] = system: field sandbur; experiment: Test G preemergence test; type: in vivo, Cenchrus incertus; conditions: scale 0 to 100
[19] = system: corn; experiment: Test G preemergence test; type: in vivo, Zea mays; conditions: scale 0 to 100
[20] = system: field violet; experiment: Test D preemergence test; type: in vivo, Viola arvensis; conditions: scale 0 to 100
Outline: as §1

[21] = system: umbrella sedge; experiment: Test B flooded paddy test; type: in vivo, Cyperus difformis; conditions: Flood, 250 g ai/ha, 13 to 15 days; scale 0 to 100, 0 no effect, 100 complete control
Description: as §2

[22] = system: sorghum; experiment: Test G preemergence test; type: in vivo, Sorghum vulgare; conditions: scale 0 to 100
[23] = system: spring wheat; experiment: Test D preemergence test; type: in vivo, Triticum aestivum; conditions: scale 0 to 100
Outline: as §1

[24] = system: tall waterhemp; experiment: Test G preemergence test; type: in vivo, Amaranthus tuberculatos; conditions: scale 0 to 100
[25] = system: eastern black nightshade; experiment: Test G preemergence test; type: in vivo, Solanum ptycanthum; conditions: scale 0 to 100

Structure (SMILES): Cn1nc(C(F)(F)F)c(CS(=O)(=O)c2ccc(Cl)c[n+]2[O-])c1OC(F)F [Compound 7]
- Plant response rating, Lambsquarters ([1]; 31 g ai/ha): 0
- Plant response rating, Lambsquarters ([1]; 62 g ai/ha): 0
- Plant response rating, Lambsquarters ([1]; 125 g ai/ha): 0
- Plant response rating, Lambsquarters ([1]; 250 g ai/ha): 15
- Plant response rating, Foxtail, Millet ([2]; 31 g ai/ha): 0
- Plant response rating, Foxtail, Millet ([2]; 62 g ai/ha): 0
- Plant response rating, Foxtail, Millet ([2]; 125 g ai/ha): 55
- Plant response rating, Foxtail, Millet ([2]; 250 g ai/ha): 55
- Plant response rating, Windgrass ([3]; 31 g ai/ha): 65
- Plant response rating, Windgrass ([3]; 62 g ai/ha): 100
- Plant response rating, Windgrass ([3]; 125 g ai/ha): 100
- Plant response rating, Windgrass ([3]; 250 g ai/ha): 100
- Plant response rating, Canarygrass ([4]; 31 g ai/ha): 0
- Plant response rating, Canarygrass ([4]; 62 g ai/ha): 0
- Plant response rating, Canarygrass ([4]; 125 g ai/ha): 20
- Plant response rating, Canarygrass ([4]; 250 g ai/ha): 100
- Plant response rating, Foxtail, Yellow ([5]; 31 g ai/ha): 0
- Plant response rating, Foxtail, Yellow ([5]; 62 g ai/ha): 50
- Plant response rating, Foxtail, Yellow ([5]; 125 g ai/ha): 95
- Plant response rating, Foxtail, Yellow ([5]; 250 g ai/ha): 100
- Plant response rating, Cotton ([6]; 31 g ai/ha): 0
- Plant response rating, Cotton ([6]; 62 g ai/ha): 0
- Plant response rating, Cotton ([6]; 125 g ai/ha): 0
- Plant response rating, Cotton ([6]; 250 g ai/ha): 0
- Plant response rating, Rice, Transplanted [7]: 70
- Plant response rating, Soybean ([8]; 31 g ai/ha): 0
- Plant response rating, Soybean ([8]; 62 g ai/ha): 0
- Plant response rating, Soybean ([8]; 125 g ai/ha): 0
- Plant response rating, Soybean ([8]; 250 g ai/ha): 0
- Plant response rating, Ducksalad [9]: 90
- Plant response rating, Blackgrass ([10]; 31 g ai/ha): 0
- Plant response rating, Blackgrass ([10]; 62 g ai/ha): 0
- Plant response rating, Blackgrass ([10]; 125 g ai/ha): 0
- Plant response rating, Blackgrass ([10]; 250 g ai/ha): 80
- Plant response rating, Bluegrass ([11]; 31 g ai/ha): 0
- Plant response rating, Bluegrass ([11]; 62 g ai/ha): 0
- Plant response rating, Bluegrass ([11]; 125 g ai/ha): 65
- Plant response rating, Bluegrass ([11]; 250 g ai/ha): 95
- Plant response rating, Ryegrass, Italian ([12]; 31 g ai/ha): 0
- Plant response rating, Ryegrass, Italian ([12]; 62 g ai/ha): 0
- Plant response rating, Ryegrass, Italian ([12]; 125 g ai/ha): 0
- Plant response rating, Ryegrass, Italian ([12]; 250 g ai/ha): 20
- Plant response rating, Fall Panicum ([13]; 31 g ai/ha): 0
- Plant response rating, Fall Panicum ([13]; 62 g ai/ha): 80
- Plant response rating, Fall Panicum ([13]; 125 g ai/ha): 90
- Plant response rating, Fall Panicum ([13]; 250 g ai/ha): 100
- Plant response rating, Foxtail, Giant ([14]; 31 g ai/ha): 0
- Plant response rating, Foxtail, Giant ([14]; 62 g ai/ha): 20
- Plant response rating, Foxtail, Giant ([14]; 125 g ai/ha): 25
- Plant response rating, Foxtail, Giant ([14]; 250 g ai/ha): 55
- Plant response rating, Signalgrass ([15]; 31 g ai/ha): 15
- Plant response rating, Signalgrass ([15]; 62 g ai/ha): 35
- Plant response rating, Signalgrass ([15]; 125 g ai/ha): 90
- Plant response rating, Signalgrass ([15]; 250 g ai/ha): 100
- Plant response rating, Cupgrass, Woolly ([16]; 31 g ai/ha): 0
- Plant response rating, Cupgrass, Woolly ([16]; 62 g ai/ha): 60
- Plant response rating, Cupgrass, Woolly ([16]; 125 g ai/ha): 75
- Plant response rating, Cupgrass, Woolly ([16]; 250 g ai/ha): 80
- Plant response rating, Goosegrass ([17]; 31 g ai/ha): 50
- Plant response rating, Goosegrass ([17]; 62 g ai/ha): 90
- Plant response rating, Goosegrass ([17]; 125 g ai/ha): 100
- Plant response rating, Goosegrass ([17]; 250 g ai/ha): 100
- Plant response rating, Sandbur ([18]; 31 g ai/ha): 0
- Plant response rating, Sandbur ([18]; 62 g ai/ha): 0
- Plant response rating, Sandbur ([18]; 125 g ai/ha): 0
- Plant response rating, Sandbur ([18]; 250 g ai/ha): 75
- Plant response rating, Corn ([19]; 31 g ai/ha): 0
- Plant response rating, Corn ([19]; 62 g ai/ha): 0
- Plant response rating, Corn ([19]; 125 g ai/ha): 0
- Plant response rating, Corn ([19]; 250 g ai/ha): 0
- Plant response rating, Field Violet ([20]; 31 g ai/ha): 0
- Plant response rating, Field Violet ([20]; 62 g ai/ha): 0
- Plant response rating, Field Violet ([20]; 125 g ai/ha): 0
- Plant response rating, Field Violet ([20]; 250 g ai/ha): 30
- Plant response rating, Umbrella Sedge [21]: 90
- Plant response rating, Sorghum ([22]; 31 g ai/ha): 0
- Plant response rating, Sorghum ([22]; 62 g ai/ha): 0
- Plant response rating, Sorghum ([22]; 125 g ai/ha): 0
- Plant response rating, Sorghum ([22]; 250 g ai/ha): 20
- Plant response rating, Wheat, Spring ([23]; 31 g ai/ha): 0
- Plant response rating, Wheat, Spring ([23]; 62 g ai/ha): 0
- Plant response rating, Wheat, Spring ([23]; 125 g ai/ha): 0
- Plant response rating, Wheat, Spring ([23]; 250 g ai/ha): 0
- Plant response rating, Waterhemp ([24]; 31 g ai/ha): 15
- Plant response rating, Waterhemp ([24]; 62 g ai/ha): 60
- Plant response rating, Waterhemp ([24]; 125 g ai/ha): 100
- Plant response rating, Waterhemp ([24]; 250 g ai/ha): 100
- Plant response rating, Nightshade ([25]; 31 g ai/ha): 0
- Plant response rating, Nightshade ([25]; 62 g ai/ha): 0
- Plant response rating, Nightshade ([25]; 125 g ai/ha): 0
- Plant response rating, Nightshade ([25]; 250 g ai/ha): 0
